Test results as given in patent US4709079A, “Polyprenyl compounds, process for the production thereof and medicines containing same” (priority 1981, dated 1987).
Read-outs that look alike come from different tables or passages of the source.

Assays:
[1] = system: carrageenan-induced edema; experiment: carrageenan-induced edema controlling test, sole edema method (Experiments 1 and 2); assay type: in vivo, male S.D. rats; details: for Control rate (carrageenan-induced edema): groups of 8 rats; for ED50: Rattus norvegicus, po, read-out: Median effective dose for carrageenan-induced edema ED50
Protocol: Effects of controlling carrageenan-induced edema were examined by the sole edema method, see Winter et al.; Pro. […] Exp. Biol. Med., 111, 544 (1962), wherein carrageenan was used as an inflaming agent and male S.D. rats weighing 150-180 g were used as the test animals (each group comprised 5 rats).
The test compound was dissolved in sesame oil and the solution was administered perorally to the rats 6 hours before the administration of the inflaming agent. The volumes of the hind leg soles were measured 3 hours after the administration of the inflaming agent. […] [formula] wherein a is the volume of the hind leg sole before the edema induction and b is the corresponding value after the edema induction. [formula] wherein c represents the average edema rate of the control group and d represents the edema rate of each animal to which the test compound was given.
Carrageenan-induced edema control rates were determined according to formula (2) in the same manner as in Experiment 1 except that each group comprised 8 rats.

[2] = continuous peroral administration for one week; assay type: in vivo, SD rats; details: 50 mg/kg per day and 200 mg/kg per day continuously for one week
gastric membranes = experiment: effects on gastric membranes of normal rats (ulceration); assay type: in vivo, Wistar ST rats
Excerpt: Four hours thereafter, the ulceration conditions in the gastric membranes were examined.

[3] = system: adjuvant-induced arthritis; experiment: adjuvant-induced arthritis controlling test; assay type: in vivo, F-344 rats; details: po; for ED50: Rattus norvegicus, 456 h, read-out: Median effective dose for adjuvant-induced arthritis ED50
Protocol: Arthritis was induced in F-344 rates (6 weeks) (Japanese Charles Liver) according to the method of Winder, C. V., et al; Arthritis Rheum. 12, 472-482 (1969) and the controlling effects were examined. 0.05 ml. of a suspension (6 mg/ml) of Mycobacterium butyricum (Difco) in liquid paraffin was in]ected in the sole of the right leg of each rat to induce arthritis. […] The former was dissolved in sesame oil and the latter was suspended in acacia. The administration of the test compounds was started on the same day as the adjuvant injection. The test compounds were administered perorally every day for 19 days.

in vivo = details: rat, po, peroral, 20% solution in sesame oil
[4] = comparison value for Indomethacin; species, sex and source not given; cited from earlier work
[5] = system: cold restraint stress-induced ulcer, gastric membranes; experiment: worsening of cold restraint stress-induced ulcer; assay type: in vivo, Wistar rats
Protocol: Cold restraint stress was applied to Wistar rats (7 weeks old) by a conventional method. […] Two hours after the application of stress, the length of ulcer (ulcer index) in the gastric membranes was measured.

[6] = peroral, 6 hours before inflaming agent, measured 3 hours after, groups of 5 rats

CC(C)=CCCC(C)=CCCC(C)=CCCC(C)=CCOC(=O)Cc1ccccc1Nc1c(Cl)cccc1Cl [Compound A, 2-[(2,6-Dichlorophenyl)amino]phenylacetic acid 3,7,11,15-tetramethyl-2,6,10,14-hexadecatetraenyl ester]
Control rate (carrageenan-induced edema) ([1]; dose 18 mg/kg, peroral): 34%

CC(C)=CCCC(C)=CCCC(C)=CCOC(=O)C(C)c1ccc(CC(C)C)cc1 (stereo not shown) [Compound B, 2-(4-isobutylphenyl)propionic acid 3,7,11-trimethyl-2,6,10-dodecatrienyl ester]
Control rate (carrageenan-induced edema) ([1]; dose 60 mg/kg, peroral): 30%

COc1ccc2c(c1)c(CC(=O)OCC=C(C)CCC=C(C)CCC=C(C)C)c(C)n2C(=O)c1ccc(Cl)cc1 [Compound C, 1-(p-Chlorobenzoyl)-2-methyl-5-methoxy-3-indolylacetic acid 3,7,11-trimethyl-2,6,10-dodecatrienyl ester]
health problem [2]: no health problem was observed
Number of ulcerated rats (gastric membranes; dose 153 mg/kg, peroral, 4 hours, fasted normal rats): 0/5
ED50 [1, 6]: 6.5 mg/kg
Control rate (carrageenan-induced edema) ([1]; dose 9 mg/kg, peroral): 40%
Control rate (carrageenan-induced edema) ([1]; dose 18 mg/kg, peroral): 42%
ED50 ([3]; peroral, every day for 19 days): 3.6 mg/kg

COc1ccc2c(c1)c(CC(=O)OCC=C(C)CCC=C(C)CCC=C(C)CCC=C(C)C)c(C)n2C(=O)c1ccc(Cl)cc1 [Compound D, 1-(p-Chlorobenzoyl)-2-methyl-5-methoxy-3-indolylacetic acid 3,7,11,15-tetramethyl-2,6,10,14-hexadecatetraenyl ester]
LD50 (in vivo; female SD rats, read-out: LD50 female): 1530 to 3160 mg/kg
LD50 (in vivo; male SD rats, read-out: LD50 male): 2000 to 2520 mg/kg
health problem [2]: no health problem was observed
Control rate (carrageenan-induced edema) ([1]; dose 9 mg/kg, peroral): 22%
Control rate (carrageenan-induced edema) ([1]; dose 18 mg/kg, peroral): 22%

CC(=O)Oc1ccccc1C(=O)OCC=C(C)CCC=C(C)C [Compound E, Acetylsalicylic acid 3,7-dimethyl-2,6-octadienyl ester]
Control rate (carrageenan-induced edema) ([1]; dose 400 mg/kg, peroral): 52%

CC(C)Cc1ccc(C(C)C(=O)O)cc1 (stereo not shown) [Ibuprofen, reference compound]
ED50 [1, 6]: 7.7 mg/kg

COc1ccc2c(c1)c(CC(=O)O)c(C)n2C(=O)c1ccc(Cl)cc1 [Indomethacin]
LD50 [4]: 18 mg/kg
Ulcer index (mean ± S.E.) (gastric membranes; dose 20 mg/kg, peroral, 4 hours, fasted normal rats): 18.0 ± 3.2
Number of ulcerated rats (gastric membranes; rat, in vivo, 20 mg/kg): 5/5
Ulcer index (Mean ± S.E.), length of ulcer ([5]; dose 20.0 mg/kg, peroral, two hours after application of stress): 36.5 ± 7.3
macroscopic observation of gastric ulcer ([5]; rat, in vivo): linear ulcer accompanied with copious bleeding was clearly recognized
stress-induced ulcer ([5]; rat, in vivo): increased significantly
ED50 ([1]; 3 h): 2.9 mg/kg
Control rate (carrageenan-induced edema) ([1]; dose 9 mg/kg, peroral): 38%
ED50 [3]: 1.5 mg/kg
LD50/ED50 ratio in the adjuvant-induced arthritis test ([3]; rat, in vivo): 14-15
